Experimental data published in patent publication US20240166612A1, “ARYLTHIOETHER ACETAMIDE AND RELATED COMPOUNDS AND THEIR USE IN TREATING MEDICAL CONDITIONS” (X-Biotix Therapeutics, Inc., priority 2021, published 2024).
≈ marks a conversion by molar mass, not a printed value.

How the values were obtained:
Assay type in all cases: cell-based
[1] = system: Wild-type P. aeruginosa PAO1; experiment: Broth microdilution MIC, wild-type P. aeruginosa PAO1; settings: Pseudomonas aeruginosa; wild-type P. aeruginosa PAO1, 37° C., 18 h; read-out: PAO1 WT MIC
Protocol: (§1) Exemplary compounds from the above Examples were tested to determine their minimum inhibitory concentration (MIC) for exemplary strains of Escherichia and Pseudomonas bacteria using broth microdilution methods. Assay procedures and results are described below.
(§2) Broth microdilution assays were conducted according to Clinical and Laboratory Standards Institute guidelines (CLSI, M07-A^11: Clinical and Laboratory Standards Institute. Methods for Dilution Antimicrobial Susceptibility Tests for Bacteria that Grow Aerobically; Approved Standard-11th Edition. Wayne, PA: CLSI, 2018). Briefly, bacterial suspensions were adjusted to a density equivalent to a 0.5 McFarland standard and diluted in sterile, cation-adjusted Mueller-Hinton broth (Beckton Dickinson) to yield a final inoculum between 2×10^5 and 8×10^5 colony-forming units (CFU)/mL. An inoculum volume of 98 μL was added to wells containing 2 μL of 2-fold serial dilutions of drug (prepared in DMSO). All inoculated microdilution trays were incubated in ambient air at 37° C. for 18 h. […] Performance of the assay was monitored by the use of laboratory quality-control strains (S. aureus ATCC 29213 and P. aeruginosa ATCC 27853) and levofloxacin, a compound with a defined MIC spectrum, in accordance with CLSI guidelines (CLSI, M100Ed29: Clinical and Laboratory Standards Institute. Performance Standards for Antimicrobial Susceptibility Testing, 29th Edition. Wayne, PA: CLSI, 2018).
(§3) Multiple enterobacteriaceae strains were tested, including both wild-type strains and multi-drug resistance pump deficient mutants. Specific strains tested included the following: • Wild-type P. aeruginosa PAO1, • P. aeruginosa PAO1 ΔmexABoprM—Disabled multi-drug efflux system Δ(MexAB-OprM), • P. aeruginosa PAO397—PAO1Δ(mexAB-oprM) Δ(mexCD-oprJ) Δ(mexEF-oprN) Δ(mexJK) Δ(mexXY) ΔopmH, • P. aeruginosa LESB58—Clinical isolate; colistin-resistant, isolated in the United Kingdom in 1988 from a patient with cystic fibrosis • E. coli JW0452-3 (BW25113 JacrA::kan)—Disabled multi-drug efflux system (AcrAB-TolC).
(§4) Experimental results are provided in Table 11, which provides MIC values for wild-type P. aeruginosa PAO1 (“PAO1 WT MIC”), P. aeruginosa PAO ΔmexABoprM (“PAO1 KO MIC”), P. aeruginosa PAO397 (“PAO397 KO MIC”), P. aeruginosa LESB58 (“LESB58”), and E. coli JW0452-3 (BW25113 JacrA::kan) (“E. coli KO MIC”).

[2] = system: P. aeruginosa PAO1 ΔmexABoprM; experiment: Broth microdilution MIC, P. aeruginosa PAO1 ΔmexABoprM; settings: Pseudomonas aeruginosa, PAO1, 18 h, read-out: PAO1 KO MIC
Protocol: as §1, §2, §3, §4

P. aeruginosa PAO397 = experiment: Broth microdilution MIC, P. aeruginosa PAO397; settings: Pseudomonas aeruginosa, PAO397, 18 h, read-out: PAO397 KO MIC
Protocol: as §1, §2, §3, §4

P. aeruginosa LESB58 = experiment: Broth microdilution MIC, P. aeruginosa LESB58; settings: Pseudomonas aeruginosa; P. aeruginosa LESB58 clinical isolate, colistin-resistant, 37° C., 18 h
Protocol: as §1, §2, §3, §4

SMILES: N#Cc1ccc(CN(Cc2nnc(N)o2)C(=O)COc2cccc(Cl)c2)c(F)c1 [compound 20]
- MIC [1]: > 64 µg/mL
- MIC [2]: 16 to 64 µg/mL (≈ 38.5 to 154 µM)
- MIC (P. aeruginosa PAO397): 1 to 16 µg/mL (≈ 2.4 to 38.5 µM)
- MIC (P. aeruginosa LESB58): > 64 µg/mL

SMILES: N#Cc1cc(F)c(CN(Cc2nnc(N)o2)C(=O)CSc2cccc(F)c2Cl)c(F)c1 [compound 25]
- MIC [1]: 1 to 16 µg/mL (≈ 2.14 to 34.2 µM)
- MIC [2]: 1 to 16 µg/mL (≈ 2.14 to 34.2 µM)
- MIC (P. aeruginosa PAO397): < 1 µg/mL
- MIC (P. aeruginosa LESB58): 1 to 16 µg/mL (≈ 2.14 to 34.2 µM)

SMILES: N#Cc1ccc(CN(Cc2nnc(N)o2)C(=O)CSc2ccccc2Cl)c(F)c1 [compound 13]
- MIC [1]: 16 to 64 µg/mL (≈ 37 to 148 µM)
- MIC [2]: 1 to 16 µg/mL (≈ 2.32 to 37 µM)
- MIC (P. aeruginosa PAO397): < 1 µg/mL
- MIC (P. aeruginosa LESB58): 1 to 16 µg/mL (≈ 2.32 to 37 µM)

SMILES: N#Cc1ccc(CN(Cc2nnc(O)o2)C(=O)CSc2ccccc2Cl)cc1 [Compound No. 66, 2-(2-Chlorophenyl)sulfanyl-N-[(4-cyanophenyl)methyl]-N-[(5-hydroxy-1,3,4-oxadiazol-2-yl)methyl]acetamide]
- MIC [1]: > 64 µg/mL
- MIC [2]: 1 to 16 µg/mL (≈ 2.41 to 38.6 µM)
- MIC (P. aeruginosa PAO397): < 1 µg/mL

SMILES: N#Cc1ccc(CN(Cc2nnc(N)o2)C(=O)CSc2ncccc2Cl)cn1 [compound 12]
- MIC [1]: > 64 µg/mL
- MIC [2]: 1 to 16 µg/mL (≈ 2.4 to 38.5 µM)
- MIC (P. aeruginosa PAO397): < 1 µg/mL

SMILES: CCc1ccccc1SCC(=O)N(Cc1nnc(N)o1)Cc1ccc(C#N)cc1F [compound 42]
- MIC [1]: 16 to 64 µg/mL (≈ 37.6 to 150 µM)
- MIC [2]: 1 to 16 µg/mL (≈ 2.35 to 37.6 µM)
- MIC (P. aeruginosa PAO397): < 1 µg/mL
- MIC (P. aeruginosa LESB58): 1 to 16 µg/mL (≈ 2.35 to 37.6 µM)

SMILES: N#Cc1ccc(CN(Cc2nnc(N)o2)C(=O)CSc2cc(CCO)ccc2Cl)c(F)c1 [Compound No. 63, N-[(5-Amino-1,3,4-oxadiazol-2-yl)methyl]-2-[2-chloro-5-(2-hydroxyethyl)phenyl]sulfanyl-N-[(4-cyano-2-fluoro-phenyl)methyl]acetamide]
- MIC [1]: > 64 µg/mL
- MIC [2]: 1 to 16 µg/mL (≈ 2.1 to 33.6 µM)
- MIC (P. aeruginosa PAO397): < 1 µg/mL
- MIC (P. aeruginosa LESB58): 16 to 64 µg/mL (≈ 33.6 to 134 µM)

SMILES: N#Cc1ccc(CN(Cc2nnc(N)o2)C(=O)CSc2ccccc2OC(F)(F)F)c(F)c1 [compound 56]
- MIC [1]: > 64 µg/mL
- MIC [2]: 16 to 64 µg/mL (≈ 33.2 to 133 µM)
- MIC (P. aeruginosa PAO397): < 1 µg/mL
- MIC (P. aeruginosa LESB58): > 64 µg/mL

SMILES: N#Cc1ccc(CN(Cc2nnc(N)o2)C(=O)CSc2cccc(F)c2Cl)cc1 [compound 52]
- MIC [1]: > 64 µg/mL
- MIC [2]: 1 to 16 µg/mL (≈ 2.32 to 37 µM)
- MIC (P. aeruginosa PAO397): < 1 µg/mL
- MIC (P. aeruginosa LESB58): 1 to 16 µg/mL (≈ 2.32 to 37 µM)

SMILES: N#Cc1cc(F)c(CN(Cc2nnc(N)o2)C(=O)CSc2cc(F)cc(F)c2Cl)c(F)c1 [compound 26]
- MIC [1]: > 64 µg/mL
- MIC [2]: < 1 µg/mL
- MIC (P. aeruginosa PAO397): < 1 µg/mL
- MIC (P. aeruginosa LESB58): 1 to 16 µg/mL (≈ 2.06 to 32.9 µM)

SMILES: N#Cc1ccc(CN(Cc2nnc(N)o2)C(=O)CSc2cc(F)cc(F)c2Cl)c(F)c1 [compound 55]
- MIC [1]: 1 to 16 µg/mL (≈ 2.14 to 34.2 µM)
- MIC [2]: < 1 µg/mL
- MIC (P. aeruginosa PAO397): < 1 µg/mL
- MIC (P. aeruginosa LESB58): 1 to 16 µg/mL (≈ 2.14 to 34.2 µM)

SMILES: N#Cc1ccc(CN(Cc2nnc(CN)o2)C(=O)CSc2ccccc2Cl)cc1 [Compound No. 67, N-[[5-(Aminomethyl)-1,3,4-oxadiazol-2-yl]methyl]-2-(2-chlorophenyl)sulfanyl-N-[(4-cyanophenyl)methyl]acetamide]
- MIC [1]: > 64 µg/mL
- MIC [2]: 16 to 64 µg/mL (≈ 37.4 to 150 µM)
- MIC (P. aeruginosa PAO397): 1 to 16 µg/mL (≈ 2.34 to 37.4 µM)

SMILES: Nc1nnc(CN(Cc2ccc(=O)[nH]c2)C(=O)CSc2ccccc2Cl)o1 [compound 29]
- MIC [1]: > 64 µg/mL
- MIC [2]: > 64 µg/mL
- MIC (P. aeruginosa PAO397): 1 to 16 µg/mL (≈ 2.46 to 39.4 µM)

SMILES: N#Cc1ccc(CN(Cc2nnc(N)o2)C(=O)CSc2ccccc2Cl)cn1 [compound 14]
- MIC [1]: > 64 µg/mL
- MIC [2]: 1 to 16 µg/mL (≈ 2.41 to 38.6 µM)
- MIC (P. aeruginosa PAO397): < 1 µg/mL
- MIC (P. aeruginosa LESB58): 16 to 64 µg/mL (≈ 38.6 to 154 µM)

SMILES: CCc1c(F)cc(F)cc1OCC(=O)N(Cc1nnc(N)o1)Cc1ccc(C#N)cc1F [Compound No. 64, N-[(5-Amino-1,3,4-oxadiazol-2-yl)methyl]-N-[(4-cyano-2-fluoro-phenyl)methyl]-2-(2-ethyl-3,5-difluoro-phenoxy)acetamide]
- MIC [1]: 16 to 64 µg/mL (≈ 35.9 to 144 µM)
- MIC [2]: < 1 µg/mL
- MIC (P. aeruginosa PAO397): < 1 µg/mL
- MIC (P. aeruginosa LESB58): 1 to 16 µg/mL (≈ 2.25 to 35.9 µM)

SMILES: CCc1ccccc1SCC(=O)N(Cc1ccc(C#N)cc1)Cc1nnc(N)o1 [Compound No. 10]
- MIC [1]: > 64 µg/mL
- MIC [2]: 1 to 16 µg/mL (≈ 2.45 to 39.3 µM)
- MIC (P. aeruginosa PAO397): < 1 µg/mL

SMILES: CCc1c(F)cccc1OCC(=O)N(Cc1nnc(N)o1)Cc1ccc(C#N)cc1F [compound 41]
- MIC [1]: > 64 µg/mL
- MIC [2]: < 1 µg/mL
- MIC (P. aeruginosa PAO397): < 1 µg/mL
- MIC (P. aeruginosa LESB58): 1 to 16 µg/mL (≈ 2.34 to 37.4 µM)

SMILES: CCc1ccccc1OCC(=O)N(Cc1nnc(N)o1)Cc1ccc(C#N)cc1F [compound 37]
- MIC [1]: > 64 µg/mL
- MIC [2]: 1 to 16 µg/mL (≈ 2.44 to 39.1 µM)
- MIC (P. aeruginosa PAO397): < 1 µg/mL
- MIC (P. aeruginosa LESB58): 16 to 64 µg/mL (≈ 39.1 to 156 µM)

SMILES: Cc1nnc(CN(Cc2ccc(C#N)cc2)C(=O)CSc2ccccc2Cl)o1 [Compound No. 65, 2-(2-Chlorophenyl)sulfanyl-N-[(4-cyanophenyl)methyl]-N-[(5-methyl-1,3,4-oxadiazol-2-yl)methyl]acetamide]
- MIC [1]: > 64 µg/mL
- MIC [2]: > 64 µg/mL
- MIC (P. aeruginosa PAO397): 1 to 16 µg/mL (≈ 2.42 to 38.8 µM)

SMILES: CCc1ccc(F)cc1OCC(=O)N(Cc1nnc(N)o1)Cc1ccc(C#N)cc1F [compound 38]
- MIC [1]: 16 to 64 µg/mL (≈ 37.4 to 150 µM)
- MIC [2]: 1 to 16 µg/mL (≈ 2.34 to 37.4 µM)
- MIC (P. aeruginosa PAO397): < 1 µg/mL
- MIC (P. aeruginosa LESB58): 16 to 64 µg/mL (≈ 37.4 to 150 µM)

SMILES: N#Cc1ccc(CN(Cc2c[nH]cn2)C(=O)CSc2ccccc2Cl)cc1 [compound 43]
- MIC [1]: > 64 µg/mL
- MIC [2]: > 64 µg/mL
- MIC (P. aeruginosa PAO397): 1 to 16 µg/mL (≈ 2.52 to 40.3 µM)

SMILES: N#Cc1ccc(CN(Cc2nnc(N)o2)C(=O)COc2ccccc2OC(F)(F)F)c(F)c1 [compound 39]
- MIC [1]: > 64 µg/mL
- MIC [2]: 16 to 64 µg/mL (≈ 34.4 to 138 µM)
- MIC (P. aeruginosa PAO397): 1 to 16 µg/mL (≈ 2.15 to 34.4 µM)
- MIC (P. aeruginosa LESB58): > 64 µg/mL

SMILES: N#Cc1ccc(CN(Cc2nnc(N)o2)C(=O)COc2cc(F)cc(F)c2Cl)cn1 [Compound No. 18, N-((5-amino-1,3,4-oxadiazol-2-yl)methyl)-2-(2-chloro-3,5-difluorophenoxy)-N-((6-cyanopyridin-3-yl)methyl)acetamide]
- MIC [1]: > 64 µg/mL
- MIC [2]: 1 to 16 µg/mL (≈ 2.3 to 36.8 µM)
- MIC (P. aeruginosa PAO397): 1 to 16 µg/mL (≈ 2.3 to 36.8 µM)
- MIC (P. aeruginosa LESB58): > 64 µg/mL

SMILES: CCc1ccccc1OCC(=O)N(Cc1ccc(C#N)cc1)Cc1nnc(N)o1 [compound 32]
- MIC [1]: > 64 µg/mL
- MIC [2]: 1 to 16 µg/mL (≈ 2.55 to 40.9 µM)
- MIC (P. aeruginosa PAO397): < 1 µg/mL

SMILES: N#Cc1ccc(CN(Cc2nnc(N)o2)C(=O)COc2cc(F)cc(F)c2Cl)c(F)c1 [Compound No. 31, N-[(5-Amino-1,3,4-oxadiazol-2-yl)methyl]-2-(2-chloro-3,5-difluoro-phenoxy)-N-[(4-cyano-2-fluoro-phenyl)methyl]acetamide]
- MIC [1]: > 64 µg/mL
- MIC [2]: 1 to 16 µg/mL (≈ 2.21 to 35.4 µM)
- MIC (P. aeruginosa PAO397): < 1 µg/mL
- MIC (P. aeruginosa LESB58): 1 to 16 µg/mL (≈ 2.21 to 35.4 µM)

SMILES: N#Cc1ccc(CN(Cc2nnc(N)s2)C(=O)CSc2ccccc2Cl)cc1 [Compound No. 69, N-[(5-Amino-1,3,4-thiadiazol-2-yl)methyl]-2-(2-chlorophenyl)sulfanyl-N-[(4-cyanophenyl)methyl]acetamide]
- MIC [1]: > 64 µg/mL
- MIC [2]: 1 to 16 µg/mL (≈ 2.33 to 37.2 µM)
- MIC (P. aeruginosa PAO397): 1 to 16 µg/mL (≈ 2.33 to 37.2 µM)
